Source: patent US12114658B2, “Compounds having a nitrogen-containing unsaturated six-membered ring and agricultural and horticultural fungicides containing the same as active ingredients” (MITSUI CHEMICALS CROP & LIFE SOLUTIONS, INC., priority 2018, dated 2024)

How the values were obtained:
[1] = system: Puccinia recondita; test: Test Example E: brown rust on wheat; assay type: in vivo; settings: 250 ppm spray (2.5 ml/pot) before inoculation, wheat variety Norin 61, investigated 7 to 10 days after inoculation
[2] = system: Magnaporthe grisea; test: whole plant or invertebrate; assay type: in vivo; settings: Pyricularia oryzae, in Oryza sativa, read-out: control value
[3] = system: Alternaia brassicicola; test: Test Example C: Alternaria sooty spot on cabbage; settings: Brassica oleracea, read-out: control value
Procedure: (§1) Disease development in Test Examples described below was evaluated in increments of 0.05 by setting 0 as no incidence of disease and 3 as disease development in a plant of untreated group. Further, control values were calculated using the following equation based on disease development.
(§2) <Control Value> Control value=100{1−(n/3)} • n=Disease development of each treated group
Seeds of a test plant (cabbage variety: Shikidori) were planted and cultivated until the cotyledons extended. In the test, the inventive compounds were dissolved into a dimethyl sulfoxide-methanol mixture solution (volume ratio: 9/1), and the resultant solutions were diluted with well water to a concentration of 250 ppm. The thus-obtained dilutions were sprayed to the test plant (2.5 ml/pot). After the dilutions dried, a conidial suspension (4-8×10^5 conidia/ml) of Alternaia brassicicola was inoculated to the plant by spraying. After the inoculation, the plant was kept in a mist chamber at room temperature of 20 to 23° C. for about 48 hours to promote the onset of disease. The disease development was investigated 2 to 3 days after the inoculation, and the effectiveness of the dilutions was evaluated.

[4] = system: Colletotrichum orbiculare; test: Test Example H: anthracnose on cucumber; settings: in Cucumis sativus, read-out: control value
Procedure: as §1, §2
Seeds of a test plant (cucumber variety: Sagami Hanjiro) were planted and cultivated until the first leaf appeared. In the test, the inventive compounds were dissolved into a dimethyl sulfoxide-methanol mixture solution (volume ratio: 9/1), and the resultant solutions were diluted with well water to a concentration of 250 ppm. The thus-obtained dilutions were sprayed to the test plant (2.5 ml/pot). After the dilutions dried, a conidial suspension (2-4×10^5 conidia/ml) of Colletotrichum orbiculare was inoculated to the plant by spraying. After the inoculation, the plant was kept in a mist chamber at room temperature of 20 to 23° C. for about 24 hours to promote the onset of disease. The disease development was investigated 6 to 10 days after the inoculation, and the effectiveness of the dilutions was evaluated.

Measured: pest or weed control at 250 ppm

CCn1c(-c2ccc(O)cc2)c(-n2ncc(C)c2Cl)cc(Cl)c1=O [PY-041, 3-chloro-5-(5-chloro-4-methyl-1H-pyrazol-1-yl)-1-ethyl-6-(4-hydroxyphenyl)pyridine-2(1H)-one]
> 50%: [1] | [2] | [3]

CCn1c(-c2ccc(OC)cc2)c(-n2ncc(C)c2Cl)cc(Cl)c1=O [PY-018, 3-chloro-5-(5-chloro-4-methyl-1H-pyrazol-1-yl)-1-ethyl-6-(4-methoxyphenyl)pyridine-2(1H)-one]
> 50%: all assays above

CCn1c(-c2ccccc2)c(-n2cnc(Cl)c2Cl)ccc1=O [IM-001, 5-(4,5-dichloro-1H-imidazol-1-yl)-1-ethyl-6-phenylpyridine-2(1H)-one]
> 50%: all assays above

CCn1c(-c2ccccc2)c(-n2cnc(Cl)c2Cl)cc(Cl)c1=O [IM-003, 3-chloro-5-(4,5-dichloro-1H-imidazol-1-yl)-1-ethyl-6-phenylpyridine-2(1H)-one]
> 50%: all assays above

CCn1c(-c2ccc(OC)cc2)c(-n2cc(C)cn2)ccc1=O [PY-036, 1-ethyl-6-(4-methoxyphenyl)-5-(4-methyl-1H-pyrazol-1-yl)pyridine-2(1H)-one]
> 50%: [4] | [3]

CCn1c(-c2ccc(OCC(F)F)cc2)c(-n2ncc(C)c2Cl)cc(Cl)c1=O [PY-046, 3-chloro-5-(5-chloro-4-methyl-1H-pyrazol-1-yl)-6-(4-(2,2-difluoroethoxy)phenyl)-1-eth ylpyridine-2(1H)-one]
> 50%: [1] | [2] | [3]

COn1c(-c2ccc(F)cc2)c(-n2ncc(C)c2Cl)cc(Br)c1=O [PY-382, 3-bromo-5-(5-chloro-4-methyl-1H-pyrazol-1-yl)-6-(4-fluorophenyl)-1-methoxypyridin-2(1H)-one]
> 50%: all assays above

CCn1c(-c2ccc(F)cc2)c(-n2nccc2Cl)cc(Cl)c1=O [PY-104, 3-chloro-5-(5-chloro-1H-pyrazol-1-yl)-1-ethyl-6-(4-fluorophenyl)pyridine-2(1H)-one]
> 50%: all assays above

COc1ccc(-c2c(-n3cc(C)cn3)ccc(=O)n2CC(F)F)cc1 [PY-031, 1-(2,2-difluoroethyl)-6-(4-methoxyphenyl)-5-(4-methyl-1H-pyrazol-1-yl)pyridine-2(1H)-one]
> 50%: [3]

COc1ccc(-c2c(-n3ncc(C)c3Cl)cc(Cl)c(=O)n2CC(F)F)cc1 [PY-032, 3-chloro-5-(5-chloro-4-methyl-1H-pyrazol-1-yl)-1-(2,2-difluoroethyl)-6-(4-methoxyphenyl)pyridine-2(1H)-one]
> 50%: all assays above

COn1c(-c2ccc(F)cc2)c(-n2cc(C)cn2)cc(Br)c1=O [PY-381, 3-bromo-6-(4-fluorophenyl)-1-methoxy-5-(4-methyl-1H-pyrazol-1-yl)pyridin-2 (1H)-one]
> 50%: [4] | [3]

COn1c(-c2ccc(F)cc2)c(-n2cc(C)cn2)ccc1=O [PY-374, 6-(4-fluorophenyl)-1-methoxy-5-(4-methyl-1H-pyrazol-1-yl)pyridin-2(1H)-one]
> 50%: [3]

CCn1c(-c2ccc(F)cc2)c(-n2nccc2C(F)(F)F)cc(Cl)c1=O [PY-090, 3-chloro-1-ethyl-6-(4-fluorophenyl)-5-(5-(trifluoromethyl)-1H-pyrazol-1-yl)pyridine-2(1H)-one]
> 50%: all assays above
